Data published in US12606528B2, “Methods and materials for inhibiting NF-kB activity” (University of Pittsburgh - Of the Commonwealth System of …, priority 2019, dated 2026).
Where two headings read alike, the source gives them in different places.

Key:
NF-κB = NF-κB assay: THP1-NF-κB-LUC cells, LPS-stimulated secreted luciferase; type: cell-based; conditions: read-out: IC50 (NF-κB assay)
Method in brief: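 THP1-NF-κB-LUC cells (25k/well) were pretreated with compounds for 2 h, then stimulated with LPS (10 ng/mL) for 18 h. Secreted luciferase was measured and normalized to vehicle, and IC50 was fitted from the concentration series.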

TNF release = test: TNF assay: TNF release from LPS-stimulated human PBMCs (TNF ELISA); type: cell-based; conditions: PBMC, read-out: IC50 (TNF assay)
Experimental: 25k THP1-NF-κB-LUC cells were dispensed into 384 well plate (per well). Cells were treated with compounds with various concentrations for 2 hours before addition of LPS (10 ng/mL) for 18 hours. Secreted luciferase activity were measured using quant-luc reagents (1 bag of luc reagent dilute to 40 mL, use 10 μL per well). Data were normalized to vehicle control and graphed. Compound IC50 towards inhibiting NF-κB were determined through Prism. Similarly, 10k human PBMCs cells were cultured in 384 well plate (per well). Cells were treated with compounds with various concentrations for 2 hours before addition of LPS (10 ng/ml) for 18 hours, and supernatants were collected and assayed for TNF ELISA. Compound IC50 towards inhibiting TNF release were determined through Prism. • Activity: “+”>10 μM, “++”>1 μM and <10 μM, “+++”>0.1 μM and <1 μM, “++++”<0.1 μM.

[1] = THP1-NF-κB-LUC cells, LPS-stimulated
[2] = LPS-stimulated human PBMCs, TNF ELISA
[3] = THP1-NF-κB-LUC cells, compounds 2 hours before LPS (10 ng/mL) for 18 hours, secreted luciferase
[4] = human PBMCs, compounds 2 hours before LPS (10 ng/ml) for 18 hours, supernatant TNF ELISA

IC50 (NF-κB; [1]) | IC50 (TNF release; [2]) | IC50 (NF-κB; [3]) | IC50 (TNF release; [4]) | Compound | also measured
> 10 µM | > 10 µM | – | – | CN1CCN(C(=O)c2ccc3nc(C(F)(F)F)c(-c4ccc(F)cc4)nc3c2)CC1 [BC19103] | –
> 10 µM | > 10 µM | – | – | CN1CCN(C(=O)c2ccc3nc(C(F)(F)F)c(-c4ccccc4)nc3c2)CC1 [BC19104] | –
> 10 µM | > 10 µM | – | – | CN1CCN(C(=O)c2ccc3nc(C(F)(F)F)c(-c4cccnc4)nc3c2)CC1 [BC19105] | –
> 10 µM | > 10 µM | – | – | CN1CCN(C(=O)c2ccc3nc(C(F)(F)F)c(-c4ccccc4F)nc3c2)CC1 [BC19106] | –
> 10 µM | > 10 µM | – | – | CN1CCN(C(=O)c2ccc3nc(C(F)(F)F)c(-c4ccc(F)cc4F)nc3c2)CC1 [BC19107] | –
> 10 µM | > 10 µM | – | – | CN1CCN(C(=O)c2ccc3nc(C(F)(F)F)c(-c4cc(F)cc(F)c4)nc3c2)CC1 [BC19108] | –
0.1 to 1 µM | > 10 µM | – | – | CN1CCN(C(=O)c2ccc3nc(-c4cccs4)c(-c4ccc(F)cc4)nc3c2)CC1 [BC19109] | –
> 10 µM | > 10 µM | – | – | CN1CCN(C(=O)c2ccc3nc(-c4ccc(F)cc4)c(C(F)(F)F)nc3c2)CC1 [BC19110] | –
> 10 µM | > 10 µM | – | – | Fc1ccc(-c2nc3cc(-c4nnc[nH]4)ccc3nc2C(F)(F)F)cc1 [BC19111] | –
> 10 µM | > 10 µM | – | – | Cn1nnnc1-c1ccc2nc(C(F)(F)F)c(-c3ccc(F)cc3)nc2c1 [BC19112] | –
> 10 µM | > 10 µM | – | – | Fc1ccc(-c2nc3cc(-c4nnn[nH]4)ccc3nc2C(F)(F)F)cc1 [BC19113] | –
> 10 µM | > 10 µM | – | – | Cc1cnc(-c2ccc3nc(C(F)(F)F)c(-c4ccc(F)cc4)nc3c2)o1 [BC19114] | –
> 10 µM | > 10 µM | – | – | Fc1ccc(-c2nc3cc(-c4ncco4)ccc3nc2C(F)(F)F)cc1 [BC19115] | –
> 10 µM | > 10 µM | – | – | Fc1ccc(-c2nc3cc(-c4nnco4)ccc3nc2C(F)(F)F)cc1 [BC19116] | –
> 10 µM | > 10 µM | – | – | NC(=O)c1ccc2nc(-c3ccc(F)cc3)c(C(F)(F)F)nc2c1 [BC19117] | –
1 to 10 µM | > 10 µM | – | – | O=C(O)c1ccc2nc(-c3ccc(F)cc3)c(-c3ccc(F)cc3)nc2c1 [BC19118] | –
< 0.1 µM | < 0.1 µM | – | – | CNC(=O)c1ccc2nc(-c3cccs3)c(-c3ccc(F)cc3)nc2c1 [BC19119] | –
< 0.1 µM | < 0.1 µM | – | – | C#CCNC(=O)c1ccc2nc(-c3cccs3)c(-c3ccc(F)cc3)nc2c1 [BC19120] | –
– | – | > 10 µM | > 10 µM | O=c1c(S(=O)(=O)c2ccc(F)c(F)c2)c[nH]c2cccnc12 [BC19121] | –
– | – | > 10 µM | > 10 µM | O=c1c(S(=O)(=O)c2ccc(F)c(F)c2)c[nH]c2ccc(Cl)nc12 [BC19122] | –
– | – | 1 to 10 µM | > 10 µM | O=c1c(S(=O)(=O)c2ccc(F)cc2)c[nH]c2ccncc12 [BC19123] | –
– | – | > 10 µM | > 10 µM | O=c1c(S(=O)(=O)c2ccc(F)cc2)c[nH]c2cccnc12 [BC19124] | –

IC50 (NF-κB; [1]) | IC50 (TNF release; [2]) | IC50 (NF-κB; [3]) | IC50 (TNF release; [4]) | Compound | also measured
< 0.1 µM | < 0.1 µM | – | – | CCS(=O)(=O)c1oc(-c2ccc(C)cc2)nc1S(=O)(=O)c1ccc(F)cc1 [BC19125] | –
1 to 10 µM | 0.1 to 1 µM | – | – | Cc1ccc(-c2nc(S(=O)(=O)c3ccc(Cl)cc3)c(S(C)(=O)=O)o2)cc1 [BC19126] | –
< 0.1 µM | 1 to 10 µM | – | – | CCS(=O)(=O)c1oc(-c2ccc(C)cc2)nc1S(=O)(=O)c1ccc(Cl)cc1 [BC19127] | –
1 to 10 µM | 0.1 to 1 µM | – | – | Cc1ccc(-c2nc(S(=O)(=O)c3ccc(Br)cc3)c(S(C)(=O)=O)o2)cc1 [BC19128] | –
< 0.1 µM | 0.1 to 1 µM | – | – | CCS(=O)(=O)c1oc(-c2ccc(C)cc2)nc1S(=O)(=O)c1ccc(Br)cc1 [BC19129] | –
0.1 to 1 µM | 0.1 to 1 µM | – | – | CCCS(=O)(=O)c1oc(-c2ccc(C)cc2)nc1S(=O)(=O)c1ccc(Br)cc1 [BC19130] | –
– | – | < 0.1 µM | > 10 µM | O=C1COc2cc(S(=O)(=O)Nc3ccc(Cl)cc3)c(Cl)cc2N1 [BC19133] | –
– | – | > 10 µM | > 10 µM | CCOc1ccc(NS(=O)(=O)c2cc3c(cc2Br)NC(=O)CO3)cc1 [BC19135] | –
– | – | > 10 µM | > 10 µM | CC(C)c1ccc(NS(=O)(=O)c2cc3c(cc2Cl)NC(=O)CO3)cc1 [BC19136] | –
– | – | 0.1 to 1 µM | > 10 µM | COc1ccc(NS(=O)(=O)c2cc3c(cc2Br)NC(=O)CO3)cc1 [BC19137] | –
– | – | < 0.1 µM | > 10 µM | CCc1ccc(NS(=O)(=O)c2cc3c(cc2Br)NC(=O)CO3)cc1 [BC19138] | –
< 0.1 µM | > 10 µM | – | – | Cn1nnnc1-c1ccc2nc(-c3ccc(F)cc3)c(-c3ccc(F)cc3)nc2c1 [BC19139] | –
1 to 10 µM | > 10 µM | – | – | Cc1cnc(-c2ccc3nc(-c4ccc(F)cc4)c(-c4ccc(F)cc4)nc3c2)o1 [BC19140] | –
0.1 to 1 µM | > 10 µM | – | – | Cc1nnc(-c2ccc3nc(-c4ccc(F)cc4)c(-c4ccc(F)cc4)nc3c2)o1 [BC19141] | –
> 10 µM | > 10 µM | – | – | CN1CCN(C(=O)c2ccc3nc(C(F)(F)F)c(-c4cccc(F)c4)nc3c2)CC1 [BC19142] | –
0.1 to 1 µM | > 10 µM | – | – | Fc1ccc(-c2nc3ccc(-c4nnc[nH]4)cc3nc2-c2ccc(F)cc2)cc1 [BC19143] | –
1 to 10 µM | > 10 µM | – | – | Fc1ccc(-c2nc3ccc(-c4nnn[nH]4)cc3nc2-c2ccc(F)cc2)cc1 [BC19144] | –
1 to 10 µM | > 10 µM | – | – | Fc1ccc(-c2nc3ccc(-c4ncco4)cc3nc2-c2ccc(F)cc2)cc1 [BC19145] | –
< 0.1 µM | 0.1 to 1 µM | – | – | Cc1ccc(-c2nc(S(=O)(=O)c3ccc(C)cc3)c(S(=O)(=O)C(C)C)o2)cc1 [BC19146] | –
0.1 to 1 µM | 0.1 to 1 µM | – | – | Cc1ccc(-c2nc(S(=O)(=O)c3ccc(F)cc3)c(S(C)(=O)=O)o2)cc1 [BC19147] | –
< 0.1 µM | > 10 µM | – | – | Cn1cc(-c2ccc3nc(-c4ccc(F)cc4)c(-c4ccc(F)cc4)nc3c2)nn1 [BC19148] | –
> 10 µM | > 10 µM | – | – | CN1CCN(C(=O)c2ccc3nc(C(F)(F)F)c(-c4ccncc4)nc3c2)CC1 [BC19149] | –

IC50 (NF-κB; [1]) | IC50 (TNF release; [2]) | IC50 (NF-κB; [3]) | IC50 (TNF release; [4]) | Compound | also measured
0.1 to 1 µM | 1 to 10 µM | – | – | Fc1ccc(-c2nc3ccc(-c4c[nH]nn4)cc3nc2-c2ccc(F)cc2)cc1 [BC19150] | –
> 10 µM | > 10 µM | – | – | Cc1nnc(-c2ccc3nc(C(F)(F)F)c(-c4ccc(F)cc4)nc3c2)o1 [BC19151] | –
> 10 µM | > 10 µM | – | – | Cn1nnnc1-c1ccc2nc(-c3ccc(F)cc3)c(C(F)(F)F)nc2c1 [BC19152] | –
> 10 µM | > 10 µM | – | – | Fc1ccc(-c2nc3ccc(-c4nnn[nH]4)cc3nc2C(F)(F)F)cc1 [BC19153] | –
< 0.1 µM | > 10 µM | – | – | C#CCNC(=O)c1ccc2nc(-c3ccc(F)cc3)c(-c3ccc(F)cc3)nc2c1 [BC19154] | –
0.1 to 1 µM | 1 to 10 µM | – | – | NC(=O)c1ccc2nc(-c3cccs3)c(-c3ccc(F)cc3)nc2c1 [BC19155] | –
– | – | – | – | O=C(O)c1ccc2nc(-c3ccc(F)cc3)c(-c3cccs3)nc2c1 [BC19156] | IC50 (NF-κB): 1 to 10 µM; IC50 (TNF release; Homo sapiens): > 10 µM
> 10 µM | > 10 µM | – | – | N#Cc1ccc2nc(-c3cccs3)c(-c3ccc(F)cc3)nc2c1 [BC19157] | –
> 10 µM | > 10 µM | – | – | N#Cc1ccc2nc(-c3ccc(F)cc3)c(C(F)(F)F)nc2c1 [BC19158] | –
> 10 µM | > 10 µM | – | – | Fc1ccc(-c2nc3ccc(-c4nnc[nH]4)cc3nc2C(F)(F)F)cc1 [BC19159] | –
– | – | > 10 µM | > 10 µM | O=c1c(S(=O)(=O)c2ccc(F)cc2)c[nH]c2ccc(Cl)cc12 [BC19160] | –
– | – | 1 to 10 µM | > 10 µM | O=C1COc2cc(S(=O)(=O)Nc3ccccc3)c(Cl)cc2N1 [BC19161] | –
– | – | > 10 µM | > 10 µM | Cc1ccc(Cl)cc1NS(=O)(=O)c1cc2c(cc1Cl)NC(=O)CO2 [BC19162] | –
– | – | > 10 µM | > 10 µM | COc1ccc(NS(=O)(=O)c2cc3c(cc2Br)NC(=O)CO3)cc1Cl [BC19163] | –
– | – | < 0.1 µM | > 10 µM | O=C1COc2cc(S(=O)(=O)Nc3ccc(OC(F)(F)F)cc3)c(Cl)cc2N1 [BC19164] | –
– | – | 0.1 to 1 µM | > 10 µM | Cc1ccc(NS(=O)(=O)c2cc3c(cc2Cl)NC(=O)CO3)cc1Cl [BC19165] | –
– | – | < 0.1 µM | > 10 µM | O=C1COc2cc(S(=O)(=O)Nc3ccc(F)cc3F)c(Br)cc2N1 [BC19166] | –
– | – | 0.1 to 1 µM | > 10 µM | CCc1cccc(NS(=O)(=O)c2cc3c(cc2Br)NC(=O)CO3)c1 [BC19167] | –
– | – | < 0.1 µM | > 10 µM | O=C1COc2c(cc(Cl)cc2S(=O)(=O)Nc2ccccc2)N1 [BC19168] | –
– | – | < 0.1 µM | > 10 µM | O=C1COc2c(cc(Cl)cc2S(=O)(=O)Nc2ccc(Cl)cc2)N1 [BC19169] | –
– | – | 1 to 10 µM | > 10 µM | Cc1ccc(Cl)cc1NS(=O)(=O)c1cc(Cl)cc2c1OCC(=O)N2 [BC19170] | –
– | – | < 0.1 µM | > 10 µM | COc1ccc(NS(=O)(=O)c2cc(Br)cc3c2OCC(=O)N3)cc1Cl [BC19171] | –
